Patent US20100137375A1, “Emulsifiable Concentrate” (BASF SE, priority 2005, published 2010)

Key:
[1] = test system: Colorado potato beetle (Leptinotarsa decemlineata); experiment: Field trial against Colorado potato beetle in potatoes; type: in vivo; conditions: 60 g AI/HA
Method: Performance of EC formulations according to the invention against the Colorado potato beetle (Leptinotarsa decemlineata) in potatoes
The trial was arranged in a randomized complete block design with three replications. Plots were 5 m long and one row (1 m) wide. Applications were conducted with a fournozzle row crop boom delivering side and overhead coverage, at 3-bar pressure and 400 l/ha. Numbers of larvae (L1/2) (L3/4) were recorded per plot at 2, 5 and 14 DAT (day after treatment) and a defoliation assessment was made at 14 DAT. Colorado potato beetle pressure was high resulting in complete defoliation in the controls at 19 DAT.

[2] = test system: Southern armyworm (Spodoptera eridania), third instar; experiment: Lima bean leaf-dip test against Southern armyworm; type: in vivo
Method: Performance of EC formulations according to the invention against Southern armyworm (Spodoptera eridania), third instar
A stock solution of metaflumizone formulation is diluted into a container of water. Lima bean leaves are dipped into treatment solutions and allowed to air-dry. A single treated leaf is placed topside-up onto water-moistened filter paper in multiple plastic petri dishes. Seven larvae are placed onto each leaf and then each arena is sealed with petri dish covers. Each treatment replicated 4-fold (1 replicate=1 petri dish arena). Following treatment application, infested plants are held in the laboratory under fluorescent lighting and constant 26° C. Larval mortality/morbidity (i.e., number dead/number tested) is assessed at 5 days post-treatment. The mortality levels based on number of live larve.

[3] = larval mortality at 5 days post-treatment, Log Dose-Probit analysis

## N#Cc1ccc(CC(=NNC(=O)Nc2ccc(OC(F)(F)F)cc2)c2cccc(C(F)(F)F)c2)cc1 [metaflumizone]
[1]; 2 DAT
  Mean # of L1/L2 per plot: .3b
  Mean # of L3/L4 per plot: .3b
[1]; 5 DAT
  Mean # of L1/L2 per plot: 4b
  Mean # of L3/L4 per plot: 2b
[1]; 14 DAT
  % Defoliation: 18a %
  Mean # of L1/L2 per plot: .3a
  Mean # of L3/L4 per plot: 7ab
[2]; [3]
  LC50: 1.50 ppm
  LC90: 7.70 ppm
[2]; relative to metaflumizone dispersed in water (standard control)
  Biological Enhancement: 1x (standard control)
